Experimental data as given in article PMC9469649 (Bioorganic & medicinal chemistry letters, 2022).

Experiments:
Kv7.3 over Kv7.2 = conditions: cited from earlier work
[1] = molecular target: Kv7.2 wild type (WT) channels (Homo sapiens, UniProt O43526); assay: SyncroPatch 384PE automated whole cell patch-clamp, wild type Kv7.2; assay type: cell-based
[2] = molecular target: Kv7.2/7.3 heterotetramers (Homo sapiens, UniProt O43525+O43526); assay: Whole cell patch-clamp electrophysiology, transfected CHO cells, Kv7.2/7.3; assay type: cell-based

Sequence of Kv7.2 wild type (WT) channels (O43526 whole entry): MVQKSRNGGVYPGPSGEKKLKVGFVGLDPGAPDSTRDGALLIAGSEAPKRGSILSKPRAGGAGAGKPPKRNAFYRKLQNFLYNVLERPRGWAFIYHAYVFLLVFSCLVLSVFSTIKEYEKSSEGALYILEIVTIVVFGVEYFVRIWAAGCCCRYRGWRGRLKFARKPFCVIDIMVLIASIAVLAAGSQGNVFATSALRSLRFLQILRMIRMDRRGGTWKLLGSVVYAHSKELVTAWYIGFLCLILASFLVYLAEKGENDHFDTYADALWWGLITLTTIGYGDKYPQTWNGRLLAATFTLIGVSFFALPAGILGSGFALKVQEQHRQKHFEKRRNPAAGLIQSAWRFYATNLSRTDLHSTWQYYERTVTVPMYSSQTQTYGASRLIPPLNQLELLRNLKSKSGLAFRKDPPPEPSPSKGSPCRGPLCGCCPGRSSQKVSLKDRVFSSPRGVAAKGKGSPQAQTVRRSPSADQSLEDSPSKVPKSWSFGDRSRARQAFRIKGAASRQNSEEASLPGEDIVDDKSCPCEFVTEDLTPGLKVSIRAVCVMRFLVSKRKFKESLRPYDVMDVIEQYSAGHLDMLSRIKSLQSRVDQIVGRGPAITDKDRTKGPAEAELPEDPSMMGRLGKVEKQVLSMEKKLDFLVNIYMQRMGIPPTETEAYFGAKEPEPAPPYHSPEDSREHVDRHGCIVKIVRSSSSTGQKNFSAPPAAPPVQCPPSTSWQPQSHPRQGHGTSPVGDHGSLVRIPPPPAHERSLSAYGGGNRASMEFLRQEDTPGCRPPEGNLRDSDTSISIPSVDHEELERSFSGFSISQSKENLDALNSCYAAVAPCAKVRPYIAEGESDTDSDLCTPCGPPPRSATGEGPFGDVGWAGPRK

## CCOC(=O)Nc1ccc(NCc2ccc(F)cc2)cc1N [Retigabine, retigabine]
Kv7.3 over Kv7.2
  lower EC50 for Kv7.3 over Kv7.2: ca. 4 fold

## CCOC(=O)Nc1cc(F)c2c(c1N)S(=O)(=O)CC(c1ccccc1)N2 (centres unmarked) [CH-02]
[1]; SyncroPatch screen, 5 μM
  Kv7.2 channel activity: completely inactive

## Nc1c(NC(=O)OC2CC2)ccc(NCc2ccc(C(F)(F)F)cc2)c1F [RL-56]
[2]
  EC50: ~20 nM

## [2H]c1cc(NC(=O)OCC)c(N)c(F)c1NCc1ccc(C(F)(F)F)cc1 [RL-25]
[1]; from EC50 values, Table 2
  activity on Kv7.2 relative to RL-71 (less active): 20 fold
  potency on Kv7.2 relative to retigabine (more potent): 4 fold
